Experimental data published in US20220016196A1, “Aloe Based Compositions Comprising Polysaccharides and Polyphenols for Regulation of Homeostasis of Immunity” (Unigen, Inc., priority 2020, published 2022).

Tests used:
Format in all cases: in vivo, rat
[1] = tested on: LPS-induced acute lung injury rats; experiment: LPS-induced acute lung injury, lung histopathology (H&E)
Method: (§1) The study was designed to evaluate the direct impact of an Aloe-based composition (UP360) made in the Example 9 in alleviating LPS-induced acute lung injury administered orally at 500 mg/kg and 250 mg/kg. […] In this study, we treated rats with the test materials orally for 7 days before model induction with LPS. On the 8th day, an hour after oral treatment, LPS was instilled intratracheally (i.t.) at 10 mg/kg dissolved in 0.1 mL/100 g PBS to each rat. The normal control rats received the same volume i.t. PBS only.
We sacrificed surviving animals 24 hours after intratracheal LPS administration to the rats. At necropsy, collected bronchoalveolar lavage (BAL) by intratracheal injection of 1.5 mL PBS into the right lobe followed by gentle aspiration at least 3 times. Pooled recovered fluid, centrifuged at 1500 rpm for 10 min at 4 ° C., and was used to measure cytokines (e.g. IL-6) and pulmonary protein levels. This same right lobe was collected for tissue homogenization from each rat for MIP-2/CINC-3 protein analysis. The left lobe was fixed with formalin and submitted for histopathology evaluation to Nationwide Histology for analysis by a certified pathologist. Serum collected at necropsy was used to measure cytokines such as TNF-α and IL-1β.
The left lobe of the lung was used for the histopathology analysis.

[2] = tested on: IL-10; experiment: LPS-induced acute lung injury, BAL IL-10 ELISA; conditions: rats, LPS 10 mg/kg i.t., 24 hours post, oral, 500 mg/kg
Method: as §1
(§2) We sacrificed surviving animals 24 hours after intratracheal LPS administration to the rats. At necropsy, collected bronchoalveolar lavage (BAL) by intratracheal injection of 1.5 mL PBS into the right lobe followed by gentle aspiration at least 3 times. Pooled recovered fluid, centrifuged at 1500 rpm for 10 min at 4 ° C., and was used to measure cytokines (e.g. IL-6) and pulmonary protein levels. […]
The presence of IL-10 in undiluted broncho-alveolar lavage (BAL) samples from Example 23 was measured using the Rat IL-10 Quantikine ELISA kit from R&D Systems (product #: R1000) as follows: undiluted BAL was added to a microplate coated with IL-10 antibody. […] After developing for 30 minutes at room temperature, a stop solution was added, and the absorbance was read at 450 nm. The concentration of IL-10 was calculated based on the absorbance readings of an IL-10 standard curve.

[3] = tested on: IL-6; experiment: LPS-induced acute lung injury, BAL IL-6 ELISA; conditions: rats
Method: as §1, §2
(§3) The presence of IL-6 in undiluted rat broncho-alveolar lavage (BAL) from Example 23 was measured using the Rat IL-6 Quantikine ELISA kit from R&D Systems (product #: R6000B) as follows: undiluted BAL was added to a microplate coated with IL-6 antibody. […] After developing for 30 minutes at room temperature, a stop solution was added, and the absorbance was read at 450 nm. The concentration of IL-6 was calculated based on the absorbance readings of an IL-6 standard curve.

[4] = LPS-induced acute lung injury, BAL total protein (BCA); conditions: rats
Method: as §1, §2
The amount of total proteins in the broncho-alveolar lavage (BAL) samples from Example 23 was measured using the Pierce BCA Protein Assay kit from ThermoFisher Scientific (product #: 23225) as follows: BAL was diluted 1:5, mixed with bicinchoninic acid (BCA) reagent in a microplate, and incubated at 37° C. for 30 minutes. Absorbance was read at 580 nm, and protein concentration in BAL was calculated based on the absorbance readings of a bovine serum albumin standard curve.

[5] = tested on: TNF-α; experiment: LPS-induced acute lung injury, serum TNF-α ELISA; conditions: rats
Method: as §1, §2
as §3, with “TNF-α” for “IL-6”, “serum” for “broncho-alveolar lavage (BAL)”, “rat TNF-α” for “Rat IL-6”, “(product#: RTA00)” for “(product #: R6000B)”, “serum” for “BAL”, “a TNF-α” for “an IL-6”

[6] = LPS 10 mg/kg i.t., 24 hours post, oral, 500 mg/kg

CCCC(=O)[O-].[Na+] [Sodium Butyrate]
Infiltration of PMC ([1]; score 0-4, 500 mg/kg): 2.75 ± 0.78
Pulmonary Edema ([1]; score 0-4, 500 mg/kg): 2.35 ± 0.95
Overall lung tissue Severity ([1]; score 0-4, H&E left lobe, 500 mg/kg): 3.05 ± 0.42
BAL IL-10 level, Mean ± SD [2]: 154.84 ± 159.63 pg/mL
BAL IL-6 level, Mean ± SD [3, 6]: 1933.30 ± 1744.23 pg/mL
reduction in the level of BAL IL-6 vs vehicle ([3]; LPS i.t., 500 mg/kg oral): 37.7%
BAL protein level, Mean ± SD [4, 6]: 2940.14 ± 2092.32 µg/mL
reduction in BAL total proteins vs vehicle ([4]; LPS i.t., 500 mg/kg oral): 30.2%
serum TNF-α level, Mean ± SD ([5]; LPS 10 mg/kg i.t., 24 hours post, oral 7 days pre-treatment, 500 mg/kg): 3.35 ± 1.73 pg/mL
reduction in serum TNF-α level vs vehicle control ([5]; LPS i.t., 500 mg/kg oral): 67.9%
